Several values for one entry are separate records, joined by “and”; a condition that tells them apart may be missing. Equal entries are not always repeated. Where two headings read alike, the source gives them in different places.
Legend:
mouse GPR40 = molecular target: T1, mouse GPR40 (Mus musculus, UniProt Q76JU9); assay: Mouse GPR40 IP1 accumulation assay; assay type: cell-based
T1 construct: expressed in transfected cells; host or cells: CHO-K1 (methods)
Experimental: (§1) Stable cell lines expressing human GPR40 (hGPR40/HEK293), mouse GPR40 (mGPR40/CHO-K1), and rat GPR40 (rGPR40/CHO-K1) were cultured in DMEM media supplemented with 10% FBS, glutamine, non-essential amino acids, and penicillin/streptomycin. hGPR40/HEK293 & mGPR40/CHO-K1 cell media was supplemented with […] G418 (Life Technologies), while rGPR40/CHO-K1 cells were grown in […] blasticidin plus […] hygromycin (Life Technologies). Cell stocks were maintained and grown in a sub-confluent state using standard cell culture procedures. The day before the experiment, the cells were harvested with non-enzymatic cell dissociation buffer and re-suspended in DMEM supplemented with 10% FBS, glutamine, non-essential amino acids, penicillin/streptomycin at 0.15, 0.2 and 0.3 million cells per ml for human, mouse, and rat GPR40, respectively. […] The seeded plates were incubated overnight at 37 C.
(§2) On the day of the experiment, the growth media was removed from the assay by gently patting the assay plates on an absorbent sheet and 10 μl of IP1 stimulation buffer (Cis Bio IP-one Tb HTRF kit) supplemented with 50 mM LiCl is added to each well. Test compounds dissolved in DMSO were serially diluted in ½ log increments starting from 2 mM or 0.2 mM and 50 nl of the compound dilution was acoustically added to each well (final starting concentration 10 μM or 1 μM). Plates were then incubated for 60 minutes at room temperature and 10 μl of detection buffer (prepared as described in the Tb kit) is added to each well. The plates are then incubated one additional hour at room temperature. […] For each assay, a standard curve plate in which IP1 is titrated is also included. […] The percent activity at each concentration of test compound is determined using 0% activation (basal activity) determined in those wells that contain DMSO alone, while 100% activity is determined in wells that contained a concentration of a partial allosteric agonist know to activate GPR40. The % activity is then plotted versus the concentration of test compound and the dose response curve fitted to a standard 4-parameter non-linear regression model using a custom in-house developed software package (Merck & Co., Inc., MRL, Kenilworth, NJ, USA). Maximal % activity and EC50 are then determined for each test compound.

human GPR40 [1] = molecular target: T2, human GPR40 (Homo sapiens, UniProt O14842); assay: Human GPR40 IP1 accumulation assay; assay type: cell-based; parameters: expressed in transfected cells
Experimental: as §1, §2

rat GPR40 = molecular target: T3, rat GPR40 (Rattus norvegicus, UniProt Q8K3T4); assay: Rat GPR40 IP1 accumulation assay; assay type: cell-based
T3 construct: expressed in transfected cells; host or cells: CHO-K1 (methods)
Experimental: as §1, §2

human GPR40 [2] = molecular target: T2, human GPR40; assay: GPR40 binding assay, partial agonist tracer [3H]L358; parameters: expressed in transfected cells; host or cells: CHO / CHO-K1 cells, membrane preparation;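 as to %Bound: 100% is tracer binding with DMSO alone and 0% is full displacement by a standard compound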
Experimental: Two small molecule tracers, the partial agonist [3H][…] and the AgoPAM [3H]25, are used to measure compound affinity at each site as described previously. Because of the allosteric coupling of the two sites and the nature of the assay, addition of a compound will either displace (binds to same site) or augment (binds to allosterically coupled site) radiotracer. Membranes expressing GPR40 were prepared from CHO cells stably expressing human GPR40. […] Sigma P8830) and were homogenized in 50 ml aliquots with a motor-driven glass Dounce homogenizer, 15 strokes at 1900 rpm on wet ice, repeating once. Homogenates were centrifuged at 2200 rpm for 10 min at 4°C. Supernatants were carefully removed and pooled. Homogenization and centrifugation were repeated until the debris pellet was translucent to maximize membrane recovery. Supernatants were then centrifuged at […] rpm for 20 min. at 4°C. […] Protein concentration was determined by Pierce BCA kit. […] The beads and membrane mixture is then vigorously mixed for 30 minutes at room temperature prior to addition to the assay. […] Next, 15 μl of the radioligand and 35 μl of the beads/membranes solution is added to each well. The assay plates are then sealed and incubated for 30 minutes at room temperature on an orbital shaker. The plates are allowed to settle for 16 hours and then counted on a TopCount scintillation counter (PE). […] Maximal % bound and IC50 are then determined for each test compound. 5 μg/well membrane together with 200 μg/well of PVT WGA SPA beads (GE #RPNG-0001) were suspended in a white 96 well plate with a final concentration of 50 μl/well in assay buffer (50 mM Tris, 10 mM MgCl2, and 2 mM EDTA). […] The plate is briefly mixed and incubated for 3-18 h at room temperature, before it is read on a MicroBeta plate counter (Perkin Elmer, MS, USA).

[3] = maximal % activity vs in-house partial agonist control
[4] = radioligand L-001533358, dose 0.318285 nM
[5] = radioligand L-001533358, dose 1.00578 nM
[6] = radioligand L-001533358, dose 3.17827 nM
[7] = radioligand L-001533358, dose 10.0433 nM
[8] = radioligand L-001533358, dose 31.7369 nM
[9] = radioligand L-001533358, dose 100.289 nM
[10] = radioligand L-001533358, dose 316.912 nM
[11] = radioligand L-001533358, dose 1001.44 nM
[12] = radioligand L-001533358, dose 3164.56 nM
[13] = radioligand L-001533358, dose 10000 nM

T2 sequence (O14842 whole entry): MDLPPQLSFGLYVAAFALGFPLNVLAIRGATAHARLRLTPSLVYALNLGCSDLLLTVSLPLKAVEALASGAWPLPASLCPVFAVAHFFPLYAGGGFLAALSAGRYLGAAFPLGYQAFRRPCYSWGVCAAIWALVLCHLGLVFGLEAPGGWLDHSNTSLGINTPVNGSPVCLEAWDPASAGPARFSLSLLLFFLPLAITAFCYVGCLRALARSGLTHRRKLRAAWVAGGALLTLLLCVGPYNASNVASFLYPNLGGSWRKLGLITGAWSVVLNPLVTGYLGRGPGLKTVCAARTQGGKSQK
T1 sequence (Q76JU9 whole entry): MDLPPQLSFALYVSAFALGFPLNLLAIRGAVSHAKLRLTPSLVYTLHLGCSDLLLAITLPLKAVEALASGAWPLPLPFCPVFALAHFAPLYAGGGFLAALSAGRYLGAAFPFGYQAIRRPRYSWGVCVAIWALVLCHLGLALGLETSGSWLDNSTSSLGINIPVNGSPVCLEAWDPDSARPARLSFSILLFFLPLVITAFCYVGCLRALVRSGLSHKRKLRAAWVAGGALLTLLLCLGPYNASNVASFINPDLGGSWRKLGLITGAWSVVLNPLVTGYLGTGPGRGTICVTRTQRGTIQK
T3 sequence (Q8K3T4 whole entry): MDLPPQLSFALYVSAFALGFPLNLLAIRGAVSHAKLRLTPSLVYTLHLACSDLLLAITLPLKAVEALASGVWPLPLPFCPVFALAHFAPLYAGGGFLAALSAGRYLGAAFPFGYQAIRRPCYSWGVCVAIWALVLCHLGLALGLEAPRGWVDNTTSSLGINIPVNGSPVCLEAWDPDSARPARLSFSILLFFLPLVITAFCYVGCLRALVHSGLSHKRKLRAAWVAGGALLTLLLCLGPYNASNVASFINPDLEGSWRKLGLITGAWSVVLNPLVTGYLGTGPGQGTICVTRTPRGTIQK

Cc1cc(OCCCS(C)(=O)=O)cc(C)c1-c1cccc(COc2ccc3c(c2)OC[C@H]3CC(=O)O)c1 [TAK-875, reference compound]
Mouse GPR40 Receptor Activation (%) (mouse GPR40; dose 1.20E-10 M): -5.6% | Mouse GPR40 Receptor Activation (%) (mouse GPR40; dose 1.99E-06 M): 140% | Mouse GPR40 Receptor Activation (%) (mouse GPR40; dose 1.99E-07 M): 129% | Mouse GPR40 Receptor Activation (%) (mouse GPR40; dose 1.99E-08 M): 125% | Mouse GPR40 Receptor Activation (%) (mouse GPR40; dose 2.00E-09 M): 44% | Mouse GPR40 Receptor Activation (%) (mouse GPR40; dose 5.98E-07 M): 147% | Mouse GPR40 Receptor Activation (%) (mouse GPR40; dose 5.98E-08 M): 122% | Mouse GPR40 Receptor Activation (%) (mouse GPR40; dose 5.99E-09 M): 87% | Mouse GPR40 Receptor Activation (%) (mouse GPR40; dose 5.99E-10 M): 23% | Mouse GPR40 Functional Assay %Act (mouse GPR40; individual replicates (n)): 131% and 140% and 174% and 156% and 154% and 110% and 134% and 185% and 133% and 107% and 152% | EC50 (mouse GPR40; individual replicates (n), read-out: Mouse GPR40 Functional Assay EC50): 2.6 nM and 3.1 nM and 3.4 nM and 4.3 nM and 4.6 nM and 5.4 nM and 5.5 nM and 6.5 nM and 6.9 nM and 8.2 nM and 1.6 nM and 1.9 nM | Efficacy (% Activation), Mouse (mouse GPR40; [3]): (145%) | EC50 (mouse GPR40; mean ± SD, n = 2–20, IP accumulation, read-out: Potency [EC50, nM] ± SD, Mouse): 4.4 ± 2.1 nM | Human GPR40 Receptor Activation (%) (human GPR40 [1]; dose 2.00E-06 M): 100% | Human GPR40 Receptor Activation (%) (human GPR40 [1]; dose 2.00E-07 M): 90% | Human GPR40 Receptor Activation (%) (human GPR40 [1]; dose 2.00E-08 M): 81% | Human GPR40 Receptor Activation (%) (human GPR40 [1]; dose 2.00E-09 M): 31% | Human GPR40 Receptor Activation (%) (human GPR40 [1]; dose 2.00E-10 M): -1.34% | Human GPR40 Receptor Activation (%) (human GPR40 [1]; dose 6.00E-07 M): 95% | Human GPR40 Receptor Activation (%) (human GPR40 [1]; dose 6.00E-08 M): 98% | Human GPR40 Receptor Activation (%) (human GPR40 [1]; dose 6.00E-09 M): 48% | Human GPR40 Receptor Activation (%) (human GPR40 [1]; dose 6.00E-10 M): 16% | Human GPR40 Receptor Activation (%) (human GPR40 [1]; dose 6.00E-11 M): 3.69% | HUMAN GPR40 Functional Assay %Act (human GPR40 [1]; individual replicates (n)): 122% and 82% and 93% and 96% and 99% and 104% and 130% and 79% | Efficacy (% Activation), Human (human GPR40 [1]; [3]): (102%) | Rat GPR40 Receptor Activation (%) (rat GPR40; dose 1.20E-10 M): -1.85% | Rat GPR40 Receptor Activation (%) (rat GPR40; dose 1.99E-06 M): 186% | Rat GPR40 Receptor Activation (%) (rat GPR40; dose 1.99E-07 M): 172% | Rat GPR40 Receptor Activation (%) (rat GPR40; dose 1.99E-08 M): 148% | Rat GPR40 Receptor Activation (%) (rat GPR40; dose 2.00E-09 M): 65% | Rat GPR40 Receptor Activation (%) (rat GPR40; dose 5.98E-07 M): 173% | Rat GPR40 Receptor Activation (%) (rat GPR40; dose 5.98E-08 M): 144% | Rat GPR40 Receptor Activation (%) (rat GPR40; dose 5.99E-09 M): 117% | Rat GPR40 Receptor Activation (%) (rat GPR40; dose 5.99E-10 M): 23% | Rat GPR40 Functional Assay %Act (rat GPR40; individual replicates (n)): 129% and 176% and 138% and 164% and 159% and 199% and 148% and 141% and 177% and 150% | EC50 (rat GPR40; individual replicates (n), read-out: Rat GPR40 Functional Assay EC50): 5.5 nM and 6.1 nM and 8.7 nM and 9.9 nM and 11.6 nM and 12.4 nM and 13.4 nM and 3.2 nM and 2.7 nM and 4.1 nM | Efficacy (% Activation), Rat (rat GPR40; [3]): (158%) | EC50 (rat GPR40; mean ± SD, n = 2–20, IP accumulation, read-out: Potency [EC50, nM] ± SD, Rat): 7.8 ± 4 nM | HUMAN GPR40 Binding Data %Act (human GPR40 [2]; TAK875 sheet, individual replicates (n), tracer not given): 92% and 91% and 95% and 87% and 103% and 89% and 72% and 84% and 93% and 94% | Binding Results, % in parentheses, [^3H]L-358 (human GPR40 [2]; WT human GPR40, maximal % (not defined)): (91%) | binding of [^3H]L358 (human GPR40 [2]; human GPR40 membranes, competition binding): displace | % Bound Normalized to 100 (human GPR40 [2]; [4]): 100.25% | %Bound (human GPR40 [2]; [4]): 75.22% | inhibition at 0.000318285 µM (human GPR40 [2]; [4]): 15.4% | % Bound Normalized to 100 (human GPR40 [2]; [5]): 73.95% | %Bound (human GPR40 [2]; [5]): 48.92% | inhibition at 0.00100578 µM (human GPR40 [2]; [5]): 31.9% | % Bound Normalized to 100 (human GPR40 [2]; [6]): 83.61% | %Bound (human GPR40 [2]; [6]): 58.58% | inhibition at 0.00317827 µM (human GPR40 [2]; [6]): 49.3% | % Bound Normalized to 100 (human GPR40 [2]; [7]): 73.41% | %Bound (human GPR40 [2]; [7]): 48.38% | inhibition at 0.0100433 µM (human GPR40 [2]; [7]): 73.5% | % Bound Normalized to 100 (human GPR40 [2]; [8]): 43.62% | %Bound (human GPR40 [2]; [8]): 18.59% | inhibition at 0.0317369 µM (human GPR40 [2]; [8]): 84.4% | % Bound Normalized to 100 (human GPR40 [2]; [9]): 17.05% | %Bound (human GPR40 [2]; [9]): -7.97% | inhibition at 0.100289 µM (human GPR40 [2]; [9]): 102% | % Bound Normalized to 100 (human GPR40 [2]; [10]): 19.20% | %Bound (human GPR40 [2]; [10]): -5.83% | inhibition at 0.316912 µM (human GPR40 [2]; [10]): 111% | % Bound Normalized to 100 (human GPR40 [2]; [11]): 13.56% | %Bound (human GPR40 [2]; [11]): -11.46% | inhibition at 1.00144 µM (human GPR40 [2]; [11]): 105% | % Bound Normalized to 100 (human GPR40 [2]; [12]): 20.27% | %Bound (human GPR40 [2]; [12]): -4.75% | inhibition at 3.16456 µM (human GPR40 [2]; [12]): 111% | % Bound Normalized to 100 (human GPR40 [2]; [13]): 28.06% | %Bound (human GPR40 [2]; [13]): 3.03% | inhibition at 10 µM (human GPR40 [2]; [13]): 109%

Source: article PMC5650142, “GPR40 partial agonists and AgoPAMs: Differentiating effects on glucose and hormonal secretions in the rodent” (PLoS ONE, 2017)
